Type in all cases: functional
For experiment [1], the system named is Escherichia coli. The experiment can be described thus: Antimicrobial activity against Escherichia coli ATCC 9637 incubated for 24 hrs by CLSI-based broth microdilution method. The settings on record: W ATCC 9637, 24 h.
For experiment [2], the system named is Pseudomonas aeruginosa. Put plainly: Antimicrobial activity against Pseudomonas aeruginosa ATCC BAA-427 incubated for 24 hrs by CLSI-based broth microdilution method. The settings on record: ATCC BAA-427, 24 h.
The subject of experiment [3] is Staphylococcus aureus. The experiment can be described thus: Antimicrobial activity against methicillin-resistant Staphylococcus aureus ATCC 700699 incubated for 24 hrs by CLSI-based broth microdilution method. The conditions noted are these: ATCC 700699, 24 h.
The subject of experiment [4] is Staphylococcus aureus. The experiment can be described thus: Antimicrobial activity against gentamicin-resistant Staphylococcus aureus ATCC 33592 incubated for 24 hrs by CLSI-based broth microdilution method. The settings on record: ATCC 33592, 24 h.
The test system of a further experiment is Klebsiella pneumoniae. Put plainly: Antimicrobial activity against Klebsiella pneumoniae ATCC 27736 incubated for 24 hrs by CLSI-based broth microdilution method. The settings on record: ATCC 27736, 24 h.
For experiment [5], the system named is Staphylococcus aureus. Put plainly: Antimicrobial activity against Staphylococcus aureus ATCC 29213 incubated for 24 hrs by CLSI-based dilution method. The settings on record: ATCC 29213, 24 h.
Experiment [6] has as its system Staphylococcus aureus. Put plainly: Antimicrobial activity against Staphylococcus aureus ATCC 25923 incubated for 24 hrs by CLSI-based dilution method. The settings on record: ATCC 25923, 24 h.
The subject of experiment [7] is Staphylococcus aureus. The experiment can be described thus: Antimicrobial activity against methicillin-susceptible Staphylococcus aureus ATCC 29213 incubated for 16 hrs by CLSI method. The settings on record: ATCC 29213, 16 h.
The subject of experiment [8] is Staphylococcus aureus. The experiment can be described thus: Antimicrobial activity against healthcare-acquired methicillin-resistant Staphylococcus aureus NRS70 incubated for 16 hrs by CLSI method. The settings on record: NRS70, 16 h.
The subject of experiment [9] is Mycobacterium tuberculosis. Put plainly: Antimicrobial activity against Mycobacterium tuberculosis H37Rv incubated for 10 days by microbroth dilution method. The settings on record: 240 h.
Experiment [10] concerns Pseudomonas aeruginosa. The experiment can be described thus: Antimicrobial activity against Pseudomonas aeruginosa ATCC 43288 incubated for 18 to 24 hrs by microbroth dilution method.
Experiment [11] deals with Yersinia pseudotuberculosis. Put plainly: Antimicrobial activity against Yersinia pseudotuberculosis ATCC 911 incubated for 18 to 24 hrs by microbroth dilution method.
Experiment [12] deals with Staphylococcus aureus. Put plainly: Antimicrobial activity against Staphylococcus aureus ATCC 25923 incubated for 18 to 24 hrs by microbroth dilution method.
For another experiment, the system named is Enterococcus faecalis. Put plainly: Antimicrobial activity against Enterococcus faecalis ATCC 29212 incubated for 18 to 24 hrs by microbroth dilution method.
The next experiment has as its system Bacillus cereus. The experiment can be described thus: Antimicrobial activity against Bacillus cereus 709 Roma incubated for 18 to 24 hrs by microbroth dilution method.
In experiment [13] the test system is Mycolicibacterium smegmatis. Put plainly: Antimicrobial activity against Mycobacterium smegmatis ATCC 607 incubated for 48 to 72 hrs by microbroth dilution method.
Experiment [14] concerns Staphylococcus aureus. The experiment can be described thus: Antimicrobial activity against methicillin-resistant Staphylococcus aureus ATCC 25923 by microdilution method.
Experiment [15] relates to Escherichia coli. Put plainly: Antimicrobial activity against Escherichia coli ATCC […] by microdilution method.
The subject of experiment [16] is Escherichia coli. Put plainly: Antimicrobial activity against multidrug resistance Escherichia coli ATCC 35218 by microdilution method.
Experiment [17] concerns Staphylococcus aureus. The experiment can be described thus: Antimicrobial activity against Staphylococcus aureus ATCC 29213 by microdilution method.

Values after ≈ are worked out from the molar mass of the structure shown.

`CCn1cc(C(=O)O)c(=O)c2cc(F)c(-n3cc(CO[C@H]4O[C@H](COC(C)=O)[C@H](OC(C)=O)[C@H](OC(C)=O)[C@H]4OC(C)=O)nn3)c(F)c21`: the MIC against Escherichia coli [1] is 12.5 µg/mL (≈ 18.4 µM); in the experiment with Pseudomonas aeruginosa [2], > 50 µg/mL; with Staphylococcus aureus [3] it was > 50 µg/mL; in the experiment on Staphylococcus aureus [4], > 50 µg/mL; with Klebsiella pneumoniae it was > 50 µg/mL; against Staphylococcus aureus [5], > 50 µg/mL. The MIC against Staphylococcus aureus [6] was > 50 µg/mL.

For the compound `COc1c(N2CCOCC2)c(F)cc2c(=O)c(C(=O)Nc3nccs3)cn(C3CC3)c12`, the MIC90 in the experiment with Staphylococcus aureus [7] and against Staphylococcus aureus [8] was > 201 µg/mL throughout.

In the case of `C[C@H]1COc2c(-c3cc4cc(Br)ccc4oc3=O)c(F)cc3c(=O)c(C(=O)O)cn1c23`, the minimal inhibitory concentration (MIC) in experiment [9] worked out at 12.5 µg/mL (≈ 25.7 µM).

On to `CCn1cc(C(=O)O)c(=O)c2cc(F)c(N3CCN(Cn4nc(CN5CCN(c6ccc([N+](=O)[O-])cc6)CC5)n(-c5ccc(F)cc5)c4=O)CC3)cc21`, for which the MIC against Pseudomonas aeruginosa [10] amounted to 0.24 µg/mL (≈ 0.329 µM); in experiment [11], 0.12 µg/mL (≈ 0.164 µM); with Staphylococcus aureus [12] it was 0.48 µg/mL (≈ 0.658 µM); against Enterococcus faecalis, 0.122 µg/mL (≈ 0.167 µM); against Bacillus cereus, 0.12 µg/mL (≈ 0.164 µM); in [13], 0.244 µg/mL (≈ 0.334 µM).

For `COc1c(N2CCCCC2)c(F)cc2c(=O)c(C(=O)Nc3nccs3)cn(C3CC3)c12`, the MIC90 in the experiment with Staphylococcus aureus [7] and against Staphylococcus aureus [8] was > 201 µg/mL in each case.

For `O=C(O)c1cn(C2CC2)c2c(cc(F)c3nn(CN(N4CCOCC4)N4CCOCC4)c(=O)n32)c1=O`, the minimum inhibitory concentration (MIC) with Staphylococcus aureus [14] is ≤ 2 µg/mL; in the experiment on Escherichia coli [15], ≤ 0.25 µg/mL; in the experiment on Escherichia coli [16], ≤ 2 µg/mL; with Staphylococcus aureus [17], ≤ 0.25 µg/mL.

On to `CCN(CC)N(Cn1nc2c(F)cc3c(=O)c(C(=O)O)cn(C4CC4)c3n2c1=O)N(CC)CC`, for which the MIC in the experiment with Staphylococcus aureus [14] was ≤ 32 µg/mL; against Escherichia coli [15], ≤ 16 µg/mL; in the experiment on Escherichia coli [16], ≤ 32 µg/mL; in the experiment on Staphylococcus aureus [17], ≤ 8 µg/mL.

`CN(C)N(Cn1nc2c(F)cc3c(=O)c(C(=O)O)cn(C4CC4)c3n2c1=O)N(C)C`: the MIC is ≤ 8 µg/mL against Staphylococcus aureus [14], ≤ 1 µg/mL against Escherichia coli [15], ≤ 4 µg/mL with Escherichia coli [16] and ≤ 2 µg/mL in the experiment with Staphylococcus aureus [17].

As to `COc1c(N2CCNCC2)c(F)cc2c(=O)c(C(=O)N3CCSC3)cn(C3CC3)c12`, the MIC90 in the experiment with Staphylococcus aureus [7] was 0.39 µg/mL (≈ 0.902 µM); against Staphylococcus aureus [8] it was 0.62 µg/mL (≈ 1.43 µM).

For the compound `COc1c(N2CCCC2)c(F)cc2c(=O)c(C(=O)Nc3nccs3)cn(C3CC3)c12`, the MIC90 against Staphylococcus aureus [7] and in the experiment with Staphylococcus aureus [8] was > 201 µg/mL each time.

Compound `C[C@H]1COc2c(-c3cc4ccccc4oc3=O)c(F)cc3c(=O)c(C(=O)O)cn1c23` came in with an MIC in experiment [9] of 12.5 µg/mL (≈ 30.7 µM).

As for `CCn1cc(C(=O)O)c(=O)c2cc(F)c(-c3cc4ccccc4oc3=O)cc21`, inhibition of growth in [9] (MIC) required 12.5 µg/mL (≈ 33 µM).

For `CC1CNCCN1N(Cn1nc2c(F)cc3c(=O)c(C(=O)O)cn(C4CC4)c3n2c1=O)N1CCNCC1C` (centres undefined), the MIC was ≤ 1 µg/mL in the experiment on Staphylococcus aureus [14], ≤ 0.25 µg/mL against Escherichia coli [15], ≤ 2 µg/mL against Escherichia coli [16] and ≤ 0.5 µg/mL in the experiment with Staphylococcus aureus [17].

For `CCn1cc(C(=O)O)c(=O)c2cc(F)c(-n3cc(CO[C@H]4OC[C@@H](OC(C)=O)[C@@H](OC(C)=O)[C@@H]4OC(C)=O)nn3)c(F)c21`, the MIC is 12.5 µg/mL (≈ 20.5 µM) in the experiment with Escherichia coli [1]; > 50 µg/mL in the experiment on Pseudomonas aeruginosa [2]; > 50 µg/mL in the experiment with Staphylococcus aureus [3]; 6.25 µg/mL (≈ 10.3 µM) against Staphylococcus aureus [4]; 6.25 µg/mL (≈ 10.3 µM) against Klebsiella pneumoniae; 6.25 µg/mL (≈ 10.3 µM) with Staphylococcus aureus [5]. In the experiment with Staphylococcus aureus [6], this compound came in with an MIC of 6.25 µg/mL (≈ 10.3 µM).

Regarding `CCn1cc(C(=O)O)c(=O)c2cc(F)c(-n3cc(CO[C@H]4OC[C@@H](OC(C)=O)[C@H](OC(C)=O)[C@H]4OC(C)=O)nn3)c(F)c21`, the MIC in the experiment with Escherichia coli [1] was 12.5 µg/mL (≈ 20.5 µM); with Pseudomonas aeruginosa [2], > 50 µg/mL; in the experiment on Staphylococcus aureus [3], > 50 µg/mL; against Staphylococcus aureus [4] it was 12.5 µg/mL (≈ 20.5 µM); in the experiment on Klebsiella pneumoniae, 25 µg/mL (≈ 41.1 µM); with Staphylococcus aureus [5], 12.5 µg/mL (≈ 20.5 µM). Moreover, the lowest concentration to inhibit growth in the experiment with Staphylococcus aureus [6] (MIC) was 12.5 µg/mL (≈ 20.5 µM).

The values above are taken from ChEMBL document CHEMBL4602605, “Fluoroquinolones structural and medicinal developments (2013-2018): Where are we now?” (Bioorg Med Chem, 2019).
